Test: clinical
Conditions: female, human, in vivo

Cmax: > 2 ng/mL
serum levels compared with the level considered necessary for effective contraception in women: exceeded the level (200–600 pg/ml)
SMILES: C#C[C@]1(O)CC[C@H]2[C@@H]3CCC4=CC(=O)CC[C@@H]4[C@H]3CC[C@@]21CC [levonorgestrel]

— patent US7045145B1, “Transdermal contraceptive delivery system and process” (Agile Therapeutics, Inc., priority 1999, dated 2006)
